Laboratory results from ChEMBL document CHEMBL1148121, “New seco-prezizaane-type sesquiterpenes, jiadifenin with neurotrophic activity and 1,2-dehydroneomajucin from Illicium jiadifengpi” (J Nat Prod, 2002).
Active and inactive are the calls of the source. The rule behind the calls is not given here.

Test system: Neuron
Test: Neurotrophic activity in Sprague-Dawley rat neurons assessed as induction of neurite outgrowth at 0.1 to 10 uM after 5 days by microscopy
Format: functional, cell-based

C[C@@H]1[C@H](O)C=C2[C@@]13C[C@@H](OC(=O)[C@@H]3O)[C@@]1(O)C(=O)OC[C@@]21C
Activity: Active

COC(=O)C1(O)O[C@@H]2C[C@@]13C(=CC(=O)[C@@H]3C)[C@]1(C)COC(=O)[C@]21O (mixture of isomers)
Activity: Active
